Each molecule was assayed against Polθ protein (amino acids 2-2590) (Homo sapiens, UniProt O75417) (assay: Polθ full length enzyme potency assay (PicoGreen)). Conditions: Polθ IC50 (nM), full length N-His, C-term FLAG tagged Polθ, PicoGreen fluorescence, 12 point concentration response.
Polθ protein (amino acids 2-2590), sequence (O75417 2-2590): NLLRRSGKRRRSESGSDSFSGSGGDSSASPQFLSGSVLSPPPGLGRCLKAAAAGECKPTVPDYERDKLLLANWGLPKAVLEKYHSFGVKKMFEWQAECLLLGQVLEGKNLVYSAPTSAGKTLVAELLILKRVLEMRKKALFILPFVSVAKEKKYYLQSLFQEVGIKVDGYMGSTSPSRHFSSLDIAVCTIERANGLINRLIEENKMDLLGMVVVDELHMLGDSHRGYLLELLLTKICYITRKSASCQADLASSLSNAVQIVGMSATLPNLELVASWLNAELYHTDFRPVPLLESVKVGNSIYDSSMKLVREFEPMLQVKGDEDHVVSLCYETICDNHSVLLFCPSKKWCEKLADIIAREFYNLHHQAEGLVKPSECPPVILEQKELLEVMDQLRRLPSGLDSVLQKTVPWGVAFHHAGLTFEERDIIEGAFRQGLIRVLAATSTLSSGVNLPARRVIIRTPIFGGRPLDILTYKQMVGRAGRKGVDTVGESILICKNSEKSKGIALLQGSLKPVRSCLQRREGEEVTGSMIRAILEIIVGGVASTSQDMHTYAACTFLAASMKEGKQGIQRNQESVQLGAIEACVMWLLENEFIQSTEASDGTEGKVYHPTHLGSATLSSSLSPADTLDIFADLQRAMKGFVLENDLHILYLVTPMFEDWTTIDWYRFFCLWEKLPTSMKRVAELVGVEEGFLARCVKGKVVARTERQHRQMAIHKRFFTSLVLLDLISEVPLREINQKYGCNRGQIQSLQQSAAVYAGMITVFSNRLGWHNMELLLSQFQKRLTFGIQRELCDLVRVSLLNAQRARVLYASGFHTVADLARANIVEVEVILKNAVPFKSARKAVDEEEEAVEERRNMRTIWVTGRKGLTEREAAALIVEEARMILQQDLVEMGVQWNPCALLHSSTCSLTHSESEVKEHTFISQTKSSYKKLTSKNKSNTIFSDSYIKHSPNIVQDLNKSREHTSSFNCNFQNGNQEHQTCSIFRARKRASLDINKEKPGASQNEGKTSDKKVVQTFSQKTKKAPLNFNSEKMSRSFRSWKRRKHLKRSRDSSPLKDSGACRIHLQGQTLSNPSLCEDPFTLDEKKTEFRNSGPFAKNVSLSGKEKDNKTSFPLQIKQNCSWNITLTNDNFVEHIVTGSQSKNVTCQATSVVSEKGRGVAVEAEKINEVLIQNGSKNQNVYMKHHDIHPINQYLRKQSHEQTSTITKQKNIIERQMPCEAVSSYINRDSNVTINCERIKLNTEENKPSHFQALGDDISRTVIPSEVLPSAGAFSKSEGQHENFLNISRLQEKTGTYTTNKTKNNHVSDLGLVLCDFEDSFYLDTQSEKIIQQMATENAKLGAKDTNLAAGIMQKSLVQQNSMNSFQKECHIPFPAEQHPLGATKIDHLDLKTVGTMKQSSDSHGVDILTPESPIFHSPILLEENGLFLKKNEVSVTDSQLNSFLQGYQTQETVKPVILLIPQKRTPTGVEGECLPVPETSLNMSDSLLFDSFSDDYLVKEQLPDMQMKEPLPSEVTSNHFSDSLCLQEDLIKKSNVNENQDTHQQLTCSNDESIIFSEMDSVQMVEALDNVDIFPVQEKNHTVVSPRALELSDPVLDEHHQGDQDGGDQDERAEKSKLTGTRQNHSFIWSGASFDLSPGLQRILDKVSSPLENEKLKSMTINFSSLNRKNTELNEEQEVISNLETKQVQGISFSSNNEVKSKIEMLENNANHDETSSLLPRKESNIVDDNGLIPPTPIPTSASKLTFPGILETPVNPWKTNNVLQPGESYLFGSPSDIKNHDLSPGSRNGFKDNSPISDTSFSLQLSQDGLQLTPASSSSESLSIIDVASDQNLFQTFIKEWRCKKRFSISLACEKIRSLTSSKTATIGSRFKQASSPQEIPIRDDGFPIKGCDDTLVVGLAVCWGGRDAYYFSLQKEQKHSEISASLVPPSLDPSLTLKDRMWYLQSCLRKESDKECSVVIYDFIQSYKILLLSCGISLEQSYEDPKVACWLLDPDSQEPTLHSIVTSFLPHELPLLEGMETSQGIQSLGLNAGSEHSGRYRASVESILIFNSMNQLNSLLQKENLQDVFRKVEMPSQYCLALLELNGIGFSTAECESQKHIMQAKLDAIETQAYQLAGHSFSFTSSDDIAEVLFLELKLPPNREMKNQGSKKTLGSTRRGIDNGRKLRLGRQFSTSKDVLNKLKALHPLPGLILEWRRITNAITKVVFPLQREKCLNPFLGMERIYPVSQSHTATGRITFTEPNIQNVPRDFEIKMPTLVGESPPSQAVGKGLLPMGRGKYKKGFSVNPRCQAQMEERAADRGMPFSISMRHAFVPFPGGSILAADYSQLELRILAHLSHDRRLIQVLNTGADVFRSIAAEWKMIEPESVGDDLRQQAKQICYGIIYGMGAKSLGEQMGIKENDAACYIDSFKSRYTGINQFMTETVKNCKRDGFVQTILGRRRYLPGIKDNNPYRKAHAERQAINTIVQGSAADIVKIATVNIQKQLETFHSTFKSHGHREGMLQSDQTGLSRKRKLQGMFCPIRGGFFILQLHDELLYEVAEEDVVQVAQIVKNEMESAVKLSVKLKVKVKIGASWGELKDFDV
With Cc1cc(C(F)(F)F)cc(N2C(=O)N(CCS(C)(=O)=O)C[C@H]2C(=O)N(C)c2ccc(F)c(Cl)c2)n1 [Example 180, (S)—N-(3-Chloro-4-fluorophenyl)-N-methyl-3-(6-methyl-4-(trifluoromethyl)pyridin-2-yl)-1-(2-(methylsulfonyl)ethyl)-2-oxoimidazolidine-4-carboxamide] the IC50 was 9 nM. For Cc1cc(C(F)(F)F)cc(N2C(=O)OC[C@H]2C(=O)N(C)c2ccc(Br)c(Cl)c2)n1 [Example 172, (S)-N-(4-Bromo-3-chlorophenyl)-N-methyl-3-(6-methyl-4-(trifluoromethyl)pyridin-2-yl)-2-oxooxazolidine-4-carboxamide], the IC50 was 20 nM. COc1cc(N(C)C(=O)[C@@H]2COC(=O)N2c2cc(C(F)(F)F)cc(C)n2)ccc1F [Example 90, (S)-N-(4-Fluoro-3-methoxyphenyl)-N-methyl-3-(6-methyl-4-(trifluoromethyl)pyridin-2-yl)-2-oxooxazolidine-4-carboxamide] gave an IC50 of 226 nM. CCN(C(=O)[C@@H]1C[C@H](N2CCOC[C@H]2CO)CN1c1nc(C)cc(C(F)(F)F)c1C#N)c1ccc(F)c(Cl)c1 [Example 153, (2S,4S)-N-(3-Chloro-4-fluorophenyl)-1-(3-cyano-6-methyl-4-(trifluoromethyl)pyridin-2-yl)-N-ethyl-4-((R)-3-(hydroxymethyl)morpholino)pyrrolidine-2-carboxamide] showed an IC50 of 104 nM. With CCN(C(=O)[C@@H]1C[C@H](N(C)C2COC2)CN1c1cc(C(F)(F)F)cc(C)n1)c1ccc(F)c(F)c1 [Example 146, (2S,4S)-N-(3,4-Difluorophenyl)-N-ethyl-4-(methyl(oxetan-3-yl)amino)-1-(6-methyl-4-(trifluoromethyl)pyridin-2-yl)pyrrolidine-2-carboxamide] the IC50 was 163 nM. With CCN(C(=O)[C@@H]1C[C@H](N2CCOC(CO)C2)CN1c1cc(C(F)(F)F)cc(C)n1)c1ccc(F)c(F)c1 (stereo partly drawn) [Example 128, (2S,4S)-N-(3,4-Difluorophenyl)-N-ethyl-4-(2-(hydroxymethyl)morpholino)-1-(6-methyl-4-(trifluoromethyl)pyridin-2-yl)pyrrolidine-2-carboxamide] the IC50 was 42 nM. With Cc1cccc(N(C)C(=O)[C@@H]2[C@H](O)[C@H](O)CN2c2nc(C)cc(C(F)(F)F)c2C#N)c1 [Example 54, (2S,3S,4R)-1-(3-Cyano-6-methyl-4-(trifluoromethyl)pyridin-2-yl)-3,4-dihydroxy-N-methyl-N-(m-tolyl)pyrrolidine-2-carboxamide] the IC50 was 13 nM. For CNc1cccc(N(C)C(=O)[C@@H]2COC(=O)N2c2cc(C(F)(F)F)cc(C)n2)n1 [Example 176, (S)—N-Methyl-3-(6-methyl-4-(trifluoromethyl)pyridin-2-yl)-N-(6-(methylamino)pyridin-2-yl)-2-oxooxazolidine-4-carboxamide], the IC50 was 94 nM. Molecule COc1cc(C(F)(F)F)c(C#N)c(N2C[C@@H](O)C[C@H]2C(=O)N(C)c2cccc(C)c2)n1 [Example 30, (2S,4S)-1-(3-Cyano-6-methoxy-4-(trifluoromethyl)pyridin-2-yl)-4-hydroxy-N-methyl-N-(m-tolyl)pyrrolidine-2-carboxamide] has an IC50 of 514 nM. In the case of Cc1cc(C(F)(F)F)cc(N2C(=O)N(CCN3CC[C@H](F)C3)C[C@H]2C(=O)N(C)c2ccc(F)c(Cl)c2F)n1 [Example 205, (S)-N-(3-Chloro-2,4-difluorophenyl)-1-(2-((S)-3-fluoropyrrolidin-1-yl)ethyl)-N-methyl-3-(6-methyl-4-(trifluoromethyl)pyridin-2-yl)-2-oxoimidazolidine-4-carboxamide], the IC50 was 6 nM. Cc1cc(C(F)(F)F)cc(N2C(=O)NC[C@H]2C(=O)N(c2ccc(F)c(Cl)c2F)C2CC2)n1 [Example 161, (S)—N-(3-Chloro-2,4-difluorophenyl)-N-cyclopropyl-3-(6-methyl-4-(trifluoromethyl)-pyridin-2-yl)-2-oxoimidazolidine-4-carboxamide] gave an IC50 of 12 nM. Work on CCN(C(=O)[C@@H]1C[C@H](N(C)C2CNC(=O)C2)CN1c1cc(C(F)(F)F)cc(C)n1)c1ccc(F)c(F)c1 (stereo partly drawn) [Example 145, (2S,4S)-N-(3,4-Difluorophenyl)-N-ethyl-4-(methyl(5-oxopyrrolidin-3-yl)amino)-1-(6-methyl-4-(trifluoromethyl)pyridin-2-yl)pyrrolidine-2-carboxamide] yielded an IC50 of 708 nM. Molecule CCN(C(=O)[C@@H]1[C@H](O)CCN1c1nc(C)cc(C(F)(F)F)c1C#N)c1ccc(F)c(Cl)c1 [Example 82, (2S,3R)—N-(3-Chloro-4-fluorophenyl)-1-(3-cyano-6-methyl-4-(trifluoromethyl)pyridin-2-yl)-N-ethyl-3-hydroxypyrrolidine-2-carboxamide] has an IC50 of 8 nM. In the case of COc1cc(N(C)C(=O)[C@@H]2COC(=O)N2c2cc(C(F)(F)F)cc(C)n2)ccc1Cl [Example 91, (S)-N-(4-Chloro-3-methoxyphenyl)-N-methyl-3-(6-methyl-4-(trifluoromethyl)pyridin-2-yl)-2-oxooxazolidine-4-carboxamide], the IC50 was 81 nM. With CCN(C(=O)[C@@H]1[C@H](O)[C@H](O)CN1c1nc(C)cc(C(F)(F)F)c1C#N)c1ccc(F)c(Cl)c1 [Example 57, (2S,3S,4R)-N-(3-Chloro-4-fluoro-phenyl)-1-(3-cyano-6-methyl-4-(trifluoromethyl)pyridin-2-yl)-N-ethyl-3,4-dihydroxypyrrolidine-2-carboxamide] the IC50 was 10 nM. With Cc1cc(C(F)(F)F)c(C#N)c(N2C[C@@H](O)C[C@H]2C(=O)N(C)c2ccc(Cl)c(F)c2)n1 [Example 18, (2S,4S)-N-(4-Chloro-3-fluorophenyl)-1-(3-cyano-6-methyl-4-(trifluoromethyl)pyridin-2-yl)-4-hydroxy-N-methyl-pyrrolidine-2-carboxamide] the IC50 was 33 nM. CCc1cc(N(C)C(=O)[C@@H]2COC(=O)N2c2cc(C(F)(F)F)cc(C)n2)ccc1F [Example 110, (S)—N-(3-Ethyl-4-fluorophenyl)-N-methyl-3-(6-methyl-4-(trifluoromethyl)pyridin-2-yl)-2-oxo-oxazolidine-4-carboxamide] showed an IC50 of 21 nM. Cc1cc(C(F)(F)F)cc(N2C(=O)N(CC3(O)CCN(C)C3)C[C@H]2C(=O)N(C)c2ccc(F)c(Cl)c2F)n1 (stereo partly drawn) [Example 223, (4S)—N-(3-Chloro-2,4-difluorophenyl)-1-((3-hydroxy-1-methylpyrrolidin-3-yl)methyl)-N-methyl-3-(6-methyl-4-(trifluoromethyl)pyridin-2-yl)-2-oxoimidazolidine-4-carboxamide] gave an IC50 of 8 nM. Work on Cc1cc(C(F)(F)F)cc(N2C(=O)[C@@H](CO)C[C@H]2C(=O)N(C)c2ccc(F)c(Cl)c2)n1 [Example 77, (2S,4R)—N-(3-Chloro-4-fluorophenyl)-4-(hydroxymethyl)-N-methyl-1-(6-methyl-4-(trifluoromethyl)pyridin-2-yl)-5-oxopyrrolidine-2-carboxamide] yielded an IC50 of 11 nM. Cc1cc(C(F)(F)F)cc(N2C(=O)[C@@H](O)[C@@H](O)[C@H]2C(=O)N(C)c2ccc(F)c(Cl)c2F)n1 [Example 70, (2S,3S,4S)—N-(3-Chloro-2,4-difluorophenyl)-3,4-dihydroxy-N-methyl-1-(6-methyl-4-(trifluoromethyl)pyridin-2-yl)-5-oxopyrrolidine-2-carboxamide] showed an IC50 of 4 nM. Work on Cc1cccc(N(C)C(=O)[C@@H]2[C@@H](O)[C@@H](O)CN2c2nc(C)cc(C(F)(F)F)c2C#N)c1 [Example 53, (2S,3R,4S)-1-(3-Cyano-6-methyl-4-(trifluoromethyl)pyridin-2-yl)-3,4-dihydroxy-N-methyl-N-(m-tolyl)pyrrolidine-2-carboxamide] yielded an IC50 of 121 nM. Molecule Cc1cc(C(F)(F)F)cc(N2C(=O)OC[C@H]2C(=O)N(C)c2ccc(F)c(Cl)c2F)n1 [Example 85, (S)—N-(3-Chloro-2,4-difluorophenyl)-N-methyl-3-(6-methyl-4-(trifluoromethyl)pyridin-2-yl)-2-oxooxazolidine-4-carboxamide] has an IC50 of 5 nM. For Cc1cc(C(F)(F)F)cc(N2C(=O)OC[C@H]2C(=O)N(C)c2ccc3c(c2)COC3)n1 [Example 102, (S)-N-(1,3-Dihydroisobenzofuran-5-yl)-N-methyl-3-(6-methyl-4-(trifluoromethyl)pyridin-2-yl)-2-oxooxazolidine-4-carboxamide], the IC50 was 86 nM. Molecule Cc1cc(C(F)(F)F)cc(N2C(=O)OC[C@H]2C(=O)N(C)c2ccc3cc[nH]c3n2)n1 [Example 127, (S)—N-Methyl-3-(6-methyl-4-(trifluoromethyl)pyridin-2-yl)-2-oxo-N-(1H-pyrrolo[2,3-b]pyridin-6-yl)oxazolidine-4-carboxamide] has an IC50 of 15 nM. Cc1cc(C(F)(F)F)cc(N2C(=O)N(CCN3CCC(F)(F)C3)C[C@H]2C(=O)N(C)c2ccc(F)c(Cl)c2F)n1 [Example 206, (S)-N-(3-Chloro-2,4-difluorophenyl)-1-(2-(3,3-difluoropyrrolidin-1-yl)ethyl)-N-methyl-3-(6-methyl-4-(trifluoromethyl)pyridin-2-yl)-2-oxoimidazolidine-4-carboxamide] gave an IC50 of 15 nM. Molecule Cc1cc(C(F)(F)F)c(C#N)c(N2C[C@@H](O)C[C@H]2C(=O)N(C)c2ccc(F)c(CF)c2)n1 [Example 15, (2S,4S)-1-(3-Cyano-6-methyl-4-(trifluoromethyl)pyridin-2-yl)-N-(4-fluoro-3-(fluoromethyl)-phenyl)-4-hydroxy-N-methyl-pyrrolidine-2-carboxamide] has an IC50 of 57 nM. Cc1cc(C(F)(F)F)cc(N2C(=O)N(CCS(C)(=N)=O)C[C@H]2C(=O)N(C)c2ccc(F)c(Cl)c2)n1 (stereo partly drawn) [Example 213, (4S)—N-(3-Chloro-4-fluorophenyl)-N-methyl-3-(6-methyl-4-(trifluoromethyl)pyridin-2-yl)-1-(2-(S-methylsulfonimidoyl)ethyl)-2-oxoimidazolidine-4-carboxamide] gave an IC50 of 26 nM. Molecule Cc1cc(C(F)(F)F)c(C#N)c(N2CCC[C@H]2C(=O)N(C)c2cc(Cl)c3ccn(C)c3n2)n1 [Example 244, (S)—N-(4-Chloro-1-methyl-pyrrolo[2,3-b]pyridin-6-yl)-1-[3-cyano-6-methyl-4-(trifluoromethyl)-2-pyridyl]-N-methyl-pyrrolidine-2-carboxamide] has an IC50 of 130 nM.

Source: patent publication US12358886B2, “Heterocyclic compounds for use in the treatment of cancer” (Artios Pharma Limited, priority 2019, dated 2025)
